From patent US9408393B2, “Bismuth-thiols as antiseptics for agricultural, industrial and other uses” (Microbion Corporation, priority 2010, dated 2016)
Where two headings read alike, the source gives them in different places.

How the values were obtained:
[1] = test system: Staphylococcus aureus (SA, MRSA); test: Single-point BisEDT-antibiotic combination FICI; assay type: cell-based
[2] = test system: Streptococcus pneumoniae (SP, PRSP); test: Single-point BisEDT-antibiotic combination FICI; settings: PRSP 5348
Enterococcus faecalis = test: Single-point BisEDT-antibiotic combination FICI; assay type: cell-based; settings: E Fc 3121
P. aeruginosa = test: Checkerboard broth microdilution MIC and FICI; assay type: cell-based, Pseudomonas aeruginosa; settings: for MIC (μg/mL) Alone / MIC: compound alone; for MIC: Pseudomonas aeruginosa
Experimental: (§1) The effects of combinations of microparticulate Bis-EDT and four Bis-EDT analogs prepared as described above, and other agents against representative strains of several Gram-negative pathogenic bacteria were tested. A modification of a common laboratory method was used to determine synergism (FICI≦0.5), enhancement (0.5<FICI≦1.0), antagonism (FICI>4.0) and indifference (1.0<FICI≦4.0) used fractional inhibitory concentrations (FICs) and FIC indices (FICI) (Eliopoulos G and R Moellering. 1991. Antimicrobial combinations. In Antibiotics in Laboratory Medicine, Third Edition, edited by V Lorian. Williams and Wilkins, Baltimore, Md., pp. 432-492; Odds, 2003 J. Antimicrob. Chemother. 52(1):1). The checkerboard technique was used to determine FIC indices and was employed in this study.
(§2) Stock solutions of all test articles were prepared at 40× the final target concentration in the appropriate solvent. […] The final drug concentrations in the FIC assay plates were set to bracket the MIC value of each agent for each test organism, unless the strain was totally resistant to the test agent. […] The test organisms were originally received from clinical sources, or from the American Type Culture Collection. Upon receipt, the isolates were streaked onto Tryptic Soy Agar II (TSA). Colonies were harvested from these plates and a cell suspension was prepared in an appropriate broth growth medium containing cryoprotectant. Aliquots were then frozen at −80° C. The frozen seeds of the organisms to be tested in a given assay were thawed, streaked for isolation onto TSA plates, and incubated at 35° C. All organisms were tested in Mueller Hinton II Broth (Becton Dickinson, Lot No. 9044411). The broth was prepared at 1.05× normal weight/volume to offset the 5% volume of the drugs in the final test plates.
(§3) Minimal Inhibitory Concentration (MIC) values were previously determined using the broth microdilution method for aerobic bacteria (Clinical and Laboratory Standards Institute (CLSI). Methods for Dilution Antimicrobial Susceptibility Tests for Bacteria That Grow Aerobically; Approved Standard—Eighth Edition. CLSI document M07-A8 [ISBN 1-56238-689-1]. Clinical and Laboratory Standards Institute, 940 West Valley Road, Suite 1400, Wayne, Pa. 19087-1898 USA, 2009.).
(§4) FIC values were determined using a broth microdilution method previously described (Sweeney et al., 2003 Antimicrob. Agents Chemother. 47(6):1902-1906). To prepare the test plates, automated liquid handlers (Multidrop 384, Labsystems, Helsinki, Finland; Biomek 2000 and Multimek 96, Beckman Coulter, Fullerton Calif.) were used to conduct serial dilutions and liquid transfers.
(§5) The appropriate wells of standard 96-well microdilution plates (Falcon 3918) were filled with 150 μL of the appropriate solvent in columns 2-12 using the Multidrop 384. Three hundred microliters of each secondary test drug was added to each well in Column 1 of the plates. These plates were used to prepare the drug “mother plates” which provided the serial drug dilutions for the drug combination plates. The Biomek 2000 was used to transfer 150 μL of each secondary drug solution (40×) from the wells in Column 1 of the mother plate and to make eleven 2-fold serial dilutions. Mother plates of Bis-EDT (and analogs) were serial diluted top to bottom by hand, using a multichannel pipette. Two mother plates, one for each secondary drug and one for Bis-EDT (or analogs), were combined to form a “checkerboard” pattern by transfer of equal volumes (using a multi-channel pipette) to the drug combination plate. Row H and Column 12 each contained serial dilutions of one of the agents alone for determination of the MIC.
(§6) The “daughter plates” were loaded with 180 μL of test medium using the Multidrop 384. Then, the Multimek 96 was used to transfer 10 μL of drug solution from each well of the drug combination mother plate to each corresponding well of the daughter plate in a single step.

[3] = test system: Gram-negative pathogenic bacteria; test: Checkerboard broth microdilution MIC and FICI; assay type: cell-based; settings: for MIC (μg/mL) Alone / MIC: compound alone; for FICI, Fractional Inhibitory Concentration Index: in combination with Cefotaxime; for MIC: Klebsiella pneumoniae
Experimental: as §1, §2, §3, §4, §5, §6

S. aureus = test: Broth dilution MIC/MBC, BT-antibiotic combinations; assay type: cell-based, Staphylococcus aureus
Experimental: Materials & Methods. Susceptibility studies were performed by broth dilution in 96-well tissue culture plates (Nalge Nunc International, Denmark) in accordance with NCCLS protocols (National Committee for Clinical Laboratory Standards. (1997). Methods for Dilution Antimicrobial Susceptibility Tests for Bacteria that Grow Aerobically: Approved Standard M7-A2 and Informational Supplement M100-S10. NCCLS, Wayne, Pa., USA).
Briefly, overnight bacterial cultures were used to prepare 0.5 McFarland standard suspensions, which were further diluted 1:50 (˜2×10^6 cfu/mL) in cation-adjusted Mueller-Hinton broth medium (BBL, Cockeysville, Md., USA). BTs (prepared as described above) and antibiotics were added at incremental concentrations, keeping the final volume constant at 0.2 mL. Cultures were incubated for 24 h at 37° C. and turbidity was assessed by absorption at 630 nm using an ELISA plate reader (Biotek Instruments, Winooski, Vt., USA) according to the manufacturer's recommendations. […] Viable bacterial counts (cfu/mL) were determined by standard plating on nutrient agar.
The checkerboard method was used to assess the activity of antimicrobial combinations. The fractional inhibitory concentration index (FICI) and the fractional bactericidal concentration index (FBCI) were calculated, according to Eliopoulos et al. (Eliopoulos and Moellering, (1996) Antimicrobial combinations. In Antibiotics in Laboratory Medicine (Lorian, V., Ed.), pp. 330-96, Williams and Wilkins, Baltimore, Md., USA). Synergy was defined as an FICI or FBCI index of […], no interaction at >0.5-4 and antagonism at >4 (Odds, F C (2003) Synergy, antagonism, and what the chequerboard puts between them. Journal of Antimicrobial Chemotherapy 52:1). Synergy was also defined conventionally as ≧4-fold decrease in antibiotic concentration.

[4] = P. aeruginosa 103, in combination with Cefepime
[5] = P. aeruginosa 103, in combination with Cefotaxime
[6] = P. aeruginosa 1381, in combination with Cefepime
[7] = P. aeruginosa 1384, in combination with Cefepime
[8] = P. aeruginosa 1474, in combination with Cefepime
[9] = P. aeruginosa 1479, in combination with Cefepime
[10] = P. aeruginosa 2566, in combination with Cefepime
[11] = P. aeruginosa 2568, in combination with Cefepime
[12] = MRSA S2446-3, BE = 0.2 μg/ml BisEDT
[13] = S. aureus ATCC 25923, BE = 0.2 μg/ml BisEDT

## CO/N=C(\C(=O)N[C@@H]1C(=O)N2C(C(=O)O)=C(COC(N)=O)CS[C@H]12)c1ccco1 [Cefuroxime]
[1]; MRSA 773
  FICI, single-point BisEDT-antibiotic combination: 4.23
[1]; SA 100
  FICI, single-point BisEDT-antibiotic combination: 1.11
[2]
  FICI, single-point BisEDT-antibiotic combination: 1.03
Enterococcus faecalis
  FICI, single-point BisEDT-antibiotic combination: 1.11

## C1C[S][Bi]([S]CC[S][Bi]2[S]CC[S]2)[S]1 [MB-1B-3, bismuth-1,2-ethane dithiol]
P. aeruginosa; P. aeruginosa 103
  MIC (μg/mL) Alone: 1 µg/mL
P. aeruginosa; [4]
  FICI, Fractional Inhibitory Concentration Index: 0.71
P. aeruginosa; [5]
  FICI, Fractional Inhibitory Concentration Index: 0.96
P. aeruginosa; P. aeruginosa 1381
  MIC (μg/mL) Alone: 1 µg/mL
P. aeruginosa; [6]
  FICI, Fractional Inhibitory Concentration Index: 1.29
P. aeruginosa; P. aeruginosa 1384
  MIC (μg/mL) Alone: 1 µg/mL
P. aeruginosa; [7]
  FICI, Fractional Inhibitory Concentration Index: 0.79
P. aeruginosa; P. aeruginosa 1474
  MIC (μg/mL) Alone: 1 µg/mL
P. aeruginosa; [8]
  FICI, Fractional Inhibitory Concentration Index: 0.79
P. aeruginosa; P. aeruginosa 1479
  MIC (μg/mL) Alone: 1 µg/mL
P. aeruginosa; [9]
  FICI, Fractional Inhibitory Concentration Index: 1.12
P. aeruginosa; P. aeruginosa 2566
  MIC (μg/mL) Alone: 0.5 µg/mL
P. aeruginosa; [10]
  FICI, Fractional Inhibitory Concentration Index: 1.37
P. aeruginosa; P. aeruginosa 2568
  MIC (μg/mL) Alone: 1 µg/mL
P. aeruginosa; [11]
  FICI, Fractional Inhibitory Concentration Index: 0.79
[3]; K. pneumoniae 1346
  MIC (μg/mL) Alone: 2 µg/mL
  FICI, Fractional Inhibitory Concentration Index: 1.23
[3]; K. pneumoniae 1355
  MIC (μg/mL) Alone: 1 µg/mL
  FICI, Fractional Inhibitory Concentration Index: 2.29
[3]; K. pneumoniae 2238
  MIC (μg/mL) Alone: 1 µg/mL
  FICI, Fractional Inhibitory Concentration Index: 1.29
[3]; K. pneumoniae 2541
  MIC (μg/mL) Alone: 2 µg/mL
  FICI, Fractional Inhibitory Concentration Index: 1.23
[3]; K. pneumoniae 2546
  MIC (μg/mL) Alone: 1 µg/mL
  FICI, Fractional Inhibitory Concentration Index: 1.12
[3]; K. pneumoniae 2549
  MIC (μg/mL) Alone: 1 µg/mL
  FICI, Fractional Inhibitory Concentration Index: 0.79

## OCC(S)CS.[Bi] (stereo not drawn) [MB-2B, bismuth-2,3-dimercaptopropanol]
P. aeruginosa; P. aeruginosa 103, in combination with Aztreonam
  FICI, Fractional Inhibitory Concentration Index: 1.08
P. aeruginosa; [4]
  FICI, Fractional Inhibitory Concentration Index: 0.61
P. aeruginosa; [5]
  FICI, Fractional Inhibitory Concentration Index: 1.11
P. aeruginosa; P. aeruginosa 1381
  MIC (μg/mL) Alone: 4 µg/mL
P. aeruginosa; P. aeruginosa 1381, in combination with Aztreonam
  FICI, Fractional Inhibitory Concentration Index: 0.89
P. aeruginosa; [6]
  FICI, Fractional Inhibitory Concentration Index: 1.09
P. aeruginosa; P. aeruginosa 1384
  MIC (μg/mL) Alone: 4 µg/mL
P. aeruginosa; P. aeruginosa 1384, in combination with Aztreonam
  FICI, Fractional Inhibitory Concentration Index: 0.91
P. aeruginosa; [7]
  FICI, Fractional Inhibitory Concentration Index: 0.94
P. aeruginosa; P. aeruginosa 1474, in combination with Aztreonam
  FICI, Fractional Inhibitory Concentration Index: 0.54
P. aeruginosa; [8]
  FICI, Fractional Inhibitory Concentration Index: 0.98
P. aeruginosa; P. aeruginosa 1479, in combination with Aztreonam
  FICI, Fractional Inhibitory Concentration Index: 0.87
P. aeruginosa; [9]
  FICI, Fractional Inhibitory Concentration Index: 1.11
P. aeruginosa; P. aeruginosa 2566, in combination with Aztreonam
  FICI, Fractional Inhibitory Concentration Index: 0.91
P. aeruginosa; [10]
  FICI, Fractional Inhibitory Concentration Index: 1.23
P. aeruginosa; P. aeruginosa 2568, in combination with Aztreonam
  FICI, Fractional Inhibitory Concentration Index: 0.87
P. aeruginosa; [11]
  FICI, Fractional Inhibitory Concentration Index: 1.11
P. aeruginosa; read-out: MIC (μg/mL) Alone, P. aeruginosa 1381
  MIC: 8 µg/mL
P. aeruginosa; read-out: MIC (μg/mL) Alone, P. aeruginosa 1384
  MIC: 8 µg/mL
[3]; K. pneumoniae 1346
  FICI, Fractional Inhibitory Concentration Index: 1.19
[3]; K. pneumoniae 1355
  FICI, Fractional Inhibitory Concentration Index: 1.19
[3]; K. pneumoniae 2238
  FICI, Fractional Inhibitory Concentration Index: 1.64
[3]; K. pneumoniae 2541
  FICI, Fractional Inhibitory Concentration Index: 0.64
[3]; K. pneumoniae 2546
  FICI, Fractional Inhibitory Concentration Index: 1.16
[3]; K. pneumoniae 2549
  FICI, Fractional Inhibitory Concentration Index: 0.83
[3]; read-out: MIC (μg/mL) Alone, K. pneumoniae 1346
  MIC: 4 µg/mL
[3]; read-out: MIC (μg/mL) Alone, K. pneumoniae 1355
  MIC: 4 µg/mL
[3]; read-out: MIC (μg/mL) Alone, K. pneumoniae 2238
  MIC: 4 µg/mL
[3]; read-out: MIC (μg/mL) Alone, K. pneumoniae 2541
  MIC: 8 µg/mL
[3]; read-out: MIC (μg/mL) Alone, K. pneumoniae 2546
  MIC: 8 µg/mL
[3]; read-out: MIC (μg/mL) Alone, K. pneumoniae 2549
  MIC: 8 µg/mL

## NC[C@@H]1O[C@H](O[C@H]2[C@@H](O)[C@H](O[C@@H]3[C@@H](O)[C@H](N)C[C@H](N)[C@H]3O[C@H]3O[C@H](CN)[C@@H](O)[C@H](O)[C@H]3N)O[C@@H]2CO)[C@H](N)[C@@H](O)[C@@H]1O [NEO, Neomycin]
S. aureus; [12]
  Δ: 1.6
S. aureus; MRSA S2446-3, antibiotic alone
  MIC: 13.400 mg/L
S. aureus; MRSA S2446-3, with 0.2 μg/ml BisEDT
  MIC + BE: 8.500 mg/L
S. aureus; [13]
  Δ: 2.5
S. aureus; S. aureus ATCC 25923, antibiotic alone
  MIC: 0.500 mg/L
S. aureus; S. aureus ATCC 25923, with 0.2 μg/ml BisEDT
  MIC + BE: 0.200 mg/L

## NC[C@@H]1O[C@H](O[C@H]2[C@@H](O)[C@H](O[C@@H]3[C@@H](O)[C@H](N)C[C@H](N)[C@H]3O[C@H]3O[C@H](CO)[C@@H](O)[C@H](O)[C@H]3N)O[C@@H]2CO)[C@H](N)[C@@H](O)[C@@H]1O [PARO, Paromomycin]
S. aureus; [12]
  Δ: 1.8
S. aureus; [13]
  Synergy: + (Synergy was also defined conventionally as ≧4-fold decrease in antibiotic concentration)
  Δ: 5.7
S. aureus; Staphylococcus aureus, ATCC25923, S. aureus ATCC 25923, antibiotic alone, read-out: MIC
  MIC: 1.08 mg/L
S. aureus; Staphylococcus aureus, ATCC25923, S. aureus ATCC 25923, with 0.2 μg/ml BisEDT, read-out: MIC + BE
  MIC: 0.188 mg/L
S. aureus; Staphylococcus aureus, MRSA, MRSA S2446-3, antibiotic alone, read-out: MIC
  MIC: 335 mg/L
S. aureus; Staphylococcus aureus, MRSA, MRSA S2446-3, with 0.2 μg/ml BisEDT, read-out: MIC + BE
  MIC: 183 mg/L
